Here are results for 24 molecules from US7202265B2, “Indolinone combinatorial libraries and related products and methods for the treatment of disease” (Sugen, Inc., priority 1997, dated 2007).

One test deals with T1, FLK-1 receptor (Mus musculus, UniProt P35918).
T1 construct: expressed in transfected cells; host or cells: NIH3T3 C7#3 (FLK-1/NIH3T3)
The experiment in a line: FLK-1 ELISA (catalytic activity of the FLK-1 receptor in FLK-1/NIH3T3 cells). Type of test: cell-based. Also on record: Flk Kinase % Inhibition: concentration or dose not given beside the values. A general note: ELISA stands for enzyme-linked immunosorbent assay.

In a further test the target is T2, EGFR (Homo sapiens, UniProt P00533).
T2 construct: Add 7 ug A431 cell lysate per well (EGFR source); endogenous in cells; host or cells: A431 cells (lysate)
Kind of test: EGFR ELISA assay (in vitro kinase activity, A431 cell lysate). Type of test: biochemical. Also on record: concentration or dose not given beside the values. The method, then:
To provide a consistent method for measuring the in vitro kinase activity of the EGFR in an Enzyme-linked immunosorbent assay (Elisa).
Scope. The following protocol describes the procedures used to analyze protein tyrosine kinase activity on the EGFR in an Elisa. The procedure also describes the protocol for the initial screening of drugs for inhibition or activation of protein tyrosine kinase activity.
1. Coat Corning 96-well elisa plates with 0.5 ug per well 05-101 antibody. • Bring final volume to 100 ul per well with PBS. • Coat plates overnight at […].
2. Remove unbound 05-101 from wells by inverting plate to remove liquid. • Wash 1× with distilled H2O by filling wells • Pat the plate on a paper towel to remove excess liquid.
3. Block plates with 5% milk in PBS. • 150 ul per well. • Incubate plate 30 minutes while shaking on a microtiter plate shaker.
4. Wash plate 3× with dionized water, then once with TBST
5. Add 7 ug A431 cell lysate per well (EGFR source). • Add PBS to final volume of 100 ul per well • Incubate 30 minutes while shaking.
6. Wash as described in step 4.
8. […] It is best to add the ATP/MnCl2 with an 12 channel pipettor 1 row at a time leaving 20 seconds between each row so that the reaction may be stopped with EDTA exactly 5 minutes later (this depends on the number of plates being phosphorylated in one batch). Shake between each addition.
9. After 5 minutes, to stop reaction, add 16.5 ul of 200 mM EDTA pH 8.0 for 20 mM final in well, shaking continuously between each addition. This is done using the same timing method as above. After last row has received EDTA, shake plate an additional minute.
10. Wash 4× with deionized water, twice with TBST.
11. Add rabbit polyclonal anti-phosphotyrosine serum. • Dilute 1:3000 in TBST. • Add 100 ul per well. • Incubate 30–45 minutes while shaking.
12. Wash as described above in step 4.
13. Add BioSource anti-rabbit peroxidase conjugate antibody. • Dilute 1:2000 in TBST. • Add 100 ul per well. • Incubate 30 minutes while shaking.
14. Wash as described in step 4.
15. Add 100 ul of ABTS/H2O2 solution to well. • Incubate 5 to 10 minutes while shaking. • Remove bubbles
16. If necessary stop reaction with the addition of 100 ul of 0.2M HCl per well
17. Read assay on Dynatech MR7000 elisa reader. • Test Filter: 410 nM • Reference Filter: 630 nM

The next test deals with human MET. Kind of test: MET biochemical kinase assay. Also on record: concentration or dose not given beside the values. Summed up: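 MET captured from cell lysates onto plates coated with goat anti-rabbit Fc plus rabbit polyclonal anti-MET cytoplasmic-domain antibody; after washing, compounds added with kinase buffer containing ATP and divalent metal ions. Receptor tyrosine phosphorylation detected by HRP-conjugated anti-phosphotyrosine antibody, TMB colorimetric read-out.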

For test [1], the target named is platelet derived growth factor protein kinase (PDGFR) (Homo sapiens, UniProt P09619). The experiment in a line: PDGF-R ELISA. The format is cell-based. Also on record: concentration or dose not given beside the values. An excerpt:
A PDGF-R ELISA is described in International Patent Publication No. WO 96/40116, published Dec. 19, 1996 by Tang et al.

Setting [2] is: Table 10, read-out: FLK Kinase IC50.
[3] abbreviates: Table 7, read-out: Activity 1C50 FLK Kinase.

pIC50: −log10 of the molar value. Like-named read-outs stand apart in the source and are kept apart here.

T1 sequence (P35918 20-1345): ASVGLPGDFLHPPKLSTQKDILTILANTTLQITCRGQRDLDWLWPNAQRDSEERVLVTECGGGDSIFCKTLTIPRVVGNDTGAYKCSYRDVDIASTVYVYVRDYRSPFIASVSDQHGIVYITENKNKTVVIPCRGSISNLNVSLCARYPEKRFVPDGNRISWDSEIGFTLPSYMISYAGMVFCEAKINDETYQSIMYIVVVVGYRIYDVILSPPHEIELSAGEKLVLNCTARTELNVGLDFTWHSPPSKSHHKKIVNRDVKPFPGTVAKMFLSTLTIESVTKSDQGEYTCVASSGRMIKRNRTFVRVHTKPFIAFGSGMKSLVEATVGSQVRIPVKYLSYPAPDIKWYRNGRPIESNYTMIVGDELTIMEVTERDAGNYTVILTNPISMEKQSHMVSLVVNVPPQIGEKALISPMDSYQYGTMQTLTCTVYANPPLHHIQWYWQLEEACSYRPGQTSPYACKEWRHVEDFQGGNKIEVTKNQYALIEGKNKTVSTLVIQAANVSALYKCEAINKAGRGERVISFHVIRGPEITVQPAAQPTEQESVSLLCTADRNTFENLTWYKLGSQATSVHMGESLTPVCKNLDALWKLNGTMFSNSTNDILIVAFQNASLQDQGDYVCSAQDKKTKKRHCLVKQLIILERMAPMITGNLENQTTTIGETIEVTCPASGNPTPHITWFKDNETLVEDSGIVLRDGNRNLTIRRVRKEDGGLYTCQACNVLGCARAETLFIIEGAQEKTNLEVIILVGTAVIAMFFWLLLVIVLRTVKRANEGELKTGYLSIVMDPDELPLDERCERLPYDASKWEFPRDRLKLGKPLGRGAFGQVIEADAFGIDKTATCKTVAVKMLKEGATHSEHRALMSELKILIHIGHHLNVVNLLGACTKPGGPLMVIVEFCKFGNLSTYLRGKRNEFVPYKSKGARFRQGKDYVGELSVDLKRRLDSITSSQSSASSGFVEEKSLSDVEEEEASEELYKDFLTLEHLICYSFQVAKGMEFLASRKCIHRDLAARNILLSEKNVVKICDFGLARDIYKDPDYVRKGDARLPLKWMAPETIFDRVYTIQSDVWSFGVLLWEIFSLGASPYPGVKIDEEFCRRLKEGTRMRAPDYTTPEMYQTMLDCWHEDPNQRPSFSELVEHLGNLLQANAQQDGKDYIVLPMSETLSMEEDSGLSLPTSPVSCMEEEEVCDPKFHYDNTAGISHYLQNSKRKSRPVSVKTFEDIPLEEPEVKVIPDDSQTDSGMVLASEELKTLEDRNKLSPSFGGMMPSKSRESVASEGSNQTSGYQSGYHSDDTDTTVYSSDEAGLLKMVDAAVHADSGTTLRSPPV
T2 sequence (P00533 25-1210): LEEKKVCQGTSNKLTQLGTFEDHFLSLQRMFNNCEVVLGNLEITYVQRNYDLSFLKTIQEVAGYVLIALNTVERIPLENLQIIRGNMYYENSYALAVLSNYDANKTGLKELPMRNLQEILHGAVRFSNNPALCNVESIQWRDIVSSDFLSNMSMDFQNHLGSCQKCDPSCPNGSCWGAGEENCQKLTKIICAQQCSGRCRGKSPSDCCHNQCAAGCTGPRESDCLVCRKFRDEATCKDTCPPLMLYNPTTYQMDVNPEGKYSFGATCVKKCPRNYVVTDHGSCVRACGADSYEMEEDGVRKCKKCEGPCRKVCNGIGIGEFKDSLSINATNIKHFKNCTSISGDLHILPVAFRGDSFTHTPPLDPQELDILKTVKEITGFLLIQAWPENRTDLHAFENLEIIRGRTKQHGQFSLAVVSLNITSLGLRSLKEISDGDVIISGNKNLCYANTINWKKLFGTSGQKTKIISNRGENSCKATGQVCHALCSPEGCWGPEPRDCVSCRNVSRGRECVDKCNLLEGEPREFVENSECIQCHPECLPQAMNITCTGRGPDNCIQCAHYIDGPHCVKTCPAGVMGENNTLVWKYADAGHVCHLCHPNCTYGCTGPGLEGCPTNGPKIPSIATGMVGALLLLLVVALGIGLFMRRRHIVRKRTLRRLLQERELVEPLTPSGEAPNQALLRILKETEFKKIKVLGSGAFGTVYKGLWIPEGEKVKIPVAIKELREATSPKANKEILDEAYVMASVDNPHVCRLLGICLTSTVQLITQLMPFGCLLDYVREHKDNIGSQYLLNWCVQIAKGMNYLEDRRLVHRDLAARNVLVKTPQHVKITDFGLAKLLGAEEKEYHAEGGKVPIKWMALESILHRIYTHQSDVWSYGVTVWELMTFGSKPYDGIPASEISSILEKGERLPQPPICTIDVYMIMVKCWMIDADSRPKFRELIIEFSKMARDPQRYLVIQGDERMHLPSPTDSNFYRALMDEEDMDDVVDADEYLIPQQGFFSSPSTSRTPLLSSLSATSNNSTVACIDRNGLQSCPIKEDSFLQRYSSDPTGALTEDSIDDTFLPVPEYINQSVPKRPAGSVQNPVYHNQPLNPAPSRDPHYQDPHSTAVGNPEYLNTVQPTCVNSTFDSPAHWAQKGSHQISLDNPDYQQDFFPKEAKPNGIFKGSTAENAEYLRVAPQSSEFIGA
Sequence of platelet derived growth factor protein kinase (PDGFR) (P09619 33-1106): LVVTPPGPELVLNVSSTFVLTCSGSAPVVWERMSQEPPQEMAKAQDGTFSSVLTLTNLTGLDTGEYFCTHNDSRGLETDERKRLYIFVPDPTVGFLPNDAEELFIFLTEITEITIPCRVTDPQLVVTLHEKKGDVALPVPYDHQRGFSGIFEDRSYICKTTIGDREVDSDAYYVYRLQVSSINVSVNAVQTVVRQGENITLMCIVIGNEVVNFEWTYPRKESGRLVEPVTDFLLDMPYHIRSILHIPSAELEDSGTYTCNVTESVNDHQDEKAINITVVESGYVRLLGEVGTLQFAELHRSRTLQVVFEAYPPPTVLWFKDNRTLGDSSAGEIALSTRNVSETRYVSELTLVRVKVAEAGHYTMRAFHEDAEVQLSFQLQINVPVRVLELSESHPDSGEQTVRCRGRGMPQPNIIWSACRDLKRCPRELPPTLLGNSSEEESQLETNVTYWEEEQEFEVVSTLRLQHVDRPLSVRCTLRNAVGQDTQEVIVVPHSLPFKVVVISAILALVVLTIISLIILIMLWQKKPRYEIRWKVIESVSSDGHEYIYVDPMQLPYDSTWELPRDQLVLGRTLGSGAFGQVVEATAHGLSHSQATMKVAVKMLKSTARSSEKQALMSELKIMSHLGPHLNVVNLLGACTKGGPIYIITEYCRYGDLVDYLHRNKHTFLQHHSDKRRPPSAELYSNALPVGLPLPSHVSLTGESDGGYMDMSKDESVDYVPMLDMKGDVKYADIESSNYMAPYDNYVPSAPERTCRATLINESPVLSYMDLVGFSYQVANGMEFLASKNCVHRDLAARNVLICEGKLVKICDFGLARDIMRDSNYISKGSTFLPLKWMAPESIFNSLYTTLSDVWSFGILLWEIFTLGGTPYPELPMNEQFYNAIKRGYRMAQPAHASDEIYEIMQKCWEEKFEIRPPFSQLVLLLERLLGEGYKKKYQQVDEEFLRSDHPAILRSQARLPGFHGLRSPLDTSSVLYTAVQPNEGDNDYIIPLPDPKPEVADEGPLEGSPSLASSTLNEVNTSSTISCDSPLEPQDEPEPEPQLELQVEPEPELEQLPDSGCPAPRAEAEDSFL
Protocol for FLK-1 receptor: An enzyme linked immunosorbent assay (ELISA) was conducted to measure the catalytic activity of the FLK-1 receptor and more specifically, the inhibition or activation of indolinone compounds on the catalytic activity of the FLK-1 receptor. Specifically, the following assay was conducted to measure catalytic activity of the FLK-1 receptor in FLK-1/NIH3T3 cells.
An ELISA assay was conducted to measure the kinase activity of the FLK-1 receptor and more specifically, the inhibition or activation of protein tyrosine kinase activity on the FLK-1 receptor. Specifically, the following assay was conducted to measure kinase activity of the FLK-1 receptor in FLK-1/NIH3T3 cells.
Materials. The following reagents and supplies were used: • a. […] PBS (Gibco Catalog No. 450–1300EB); • d. […] EDTA (0.5 M (pH 7.0) as a 100× stock); • h. Sodium ortho vanadate (0.5 M as a 100× stock); • i. Sodium pyro phosphate (0.2M as a 100× stock); • j. […] NIH3T3 C7#3 Cells (FLK-1 expressing cells); • l. […] FBS, Gibco (catalog no. 16000-028); • n.
Protocol. The following protocol was used for conducting the assay:
1. Coat Corning 96-well elisa plates with 1.0 μg per well Cappel Anti-rabbit IgG antibody in 0.1M Na2CO3 pH 9.6. Bring final volume to 150 μl per well. Coat plates overnight at 4° C. Plates can be kept up to two weeks when stored at 4° C.
2. Grow cells in Growth media(DMEM, supplemental with 2.0 mM L-Glutamine, 10% FBS) in suitable culture dishes until confluent at 37° C., 5% CO2.
4. Grow cells at least one day at 37° C., 5% CO2.
5. Wash cells with D-PBS 1×.
6. Add 200 μl/well of starvation media (DMEM, 2.0 mM 1-Glutamine, 0.1% FBS). Incubate overnight at 37° C., 5% CO2.
7. Dilute Compounds/Extracts 1:20 in polypropylene 96 well plates using starvation media. Dilute dimethylsulfoxide 1:20 for use in control wells.
8. Remove starvation media from 96 well cell culture plates and add 162 μl of fresh starvation media to each well.
9. Add 18 μl of 1:20 diluted Compound/Extract dilution (from step 7) to each well plus the 1:20 dimethylsulfoxide dilution to the control wells (+/−VEGF), for a final dilution of 1:200 after cell stimulation. Final dimethylsulfoxide is 0.5%. Incubate the plate at 37° C., 5% CO2 for two hours.
10. Remove unbound antibody from ELISA plates by inverting plate to remove liquid. […] Pat the plate on a paper towel to remove excess liquid and bubbles.
Incubate plate thirty minutes while shaking on a microtiter plate shaker.
Wash plate 3 times as described in step 10.
Incubate plate for. thirty minutes while shaking.

Regarding `Cc1[nH]c(/C=C2\C(=O)Nc3ccc(N)cc32)c(Br)c1Br`, the pIC50 at FLK-1 receptor (setting [2]) was 5.72.
For `COc1cc2c(cc1OC)/C(=C/c1coc3ccc(C(C)C)cc3c1=O)C(=O)N2`, the pIC50 at FLK-1 receptor (setting [2]) was 4.77.
For the molecule `COc1cccc(O)c1C=C1C(=O)Nc2ccc(S(=O)(=O)N3CCOCC3)cc21` [10717/F10], the “Flk Kinase % Inhibition” value on FLK-1 receptor is −4.4%.
For `CCOC(=O)CCc1c(C(=O)OCC)[nH]c(C=C2C(=O)Nc3ccc(I)cc32)c1CC(=O)OCC` [10718/B05], at FLK-1 receptor, the “Flk Kinase % Inhibition” value was 11.5%. Moreover, the “Biochem EGFR % Inhibition” value on EGFR stood at 56.3%. The “Met Kinase % Inhibition” value with human MET is 76.0%.
For `CNS(=O)(=O)c1ccc2c(c1)C(=Cc1ccc(F)cc1C(F)(F)F)C(=O)N2` [10719/D11], in that order: −8.7%, −11.1% and 12.8%.
On to `Cn1c(C=C2C(=O)Nc3ccc(I)cc32)nc2ccccc21` [10721/B02], for which, on FLK-1 receptor, the “Flk Kinase % Inhibition” value is given as 19.5%. Moreover, the “Biochem EGFR % Inhibition” value at EGFR amounted to 58.6%. Besides, the “Met Kinase % Inhibition” value in the test on human MET is listed as 82.6%.
The like results for `Cn1cc(Cl)c(C=C2C(=O)Nc3ccc(I)cc32)n1` [10721/B03] were, in that order, 19.9%, 38.9% and 70.8%.
For `Cc1cc(C=C2C(=O)Nc3ccc(I)cc32)sc1C` [10721/B04], in that order: 13.8%, 79.3% and 93.1%.
Regarding `O=C1Nc2ccc(I)cc2C1=Cc1cc([N+](=O)[O-])cc(CCl)c1O` [10721/B06], the “Flk Kinase % Inhibition” value at FLK-1 receptor came out at 3.4%. Moreover, the “Biochem EGFR % Inhibition” value at EGFR came out at 71.5%. In the test with human MET, the “Met Kinase % Inhibition” value amounted to 92.4%.
Regarding `O=C1Nc2ccc(I)cc2C1=Cc1ccc(Cl)s1` [10721/B07], on FLK-1 receptor, the “Flk Kinase % Inhibition” value was determined as 11.2%. Also, on EGFR, the “Biochem EGFR % Inhibition” value is on record as 47.6%. In addition, the “Met Kinase % Inhibition” value with human MET was 47.1%.
Consider `Cc1cc(C=C2C(=O)Nc3ccc(I)cc32)cc(C)c1O` [10722/B07], for which the “Flk Kinase % Inhibition” value on FLK-1 receptor amounted to 6.6%. Moreover, the “PDGF Kinase % Inhibition” value in test [1] is on record as 20.9%. At EGFR, the “Biochem EGFR % Inhibition” value came out at 6.2%. Moreover, the “Met Kinase % Inhibition” value in the test with human MET came to 48.2%.
For `O=C1Nc2ccc(I)cc2C1=Cc1csc([N+](=O)[O-])c1` [10722/B09], in that order: 8.7%, 14.6%, 7.8% and 59.7%.
Consider `O=C1Nc2ccc(CCCl)cc2C1=Cc1cccc(Br)c1` [10723/G10], for which, on FLK-1 receptor, the “Flk Kinase % Inhibition” value worked out at 3.5%.
On to `CN(C)c1ccc(C=C2C(=O)Nc3ccc(I)cc32)c2ccccc12` [10724/B02], for which the “Flk Kinase % Inhibition” value at FLK-1 receptor was −6.2%. The “PDGF Kinase % Inhibition” value in test [1] is listed as −21.5%. Also, on EGFR, the “Biochem EGFR % Inhibition” value was 34.9%. In addition, the “Met Kinase % Inhibition” value in the test on human MET was found to be 48.8%.
The like results for `O=C1Nc2ccc(I)cc2C1=Cc1ccc([N+](=O)[O-])c(O)c1` [10724/B04] were, in that order, −20.5%, 42.5%, 50.2% and 81.2%.
The like results for `O=C1Nc2ccc(I)cc2C1=Cc1cc2c3c(c1O)CCCN3CCC2` [10724/B05] were, in that order, −2.2%, 12.6%, 21.2% and 45.6%.
`Cc1ccc(C=C2C(=O)Nc3c(Br)cc(Br)cc32)o1` [10725/A04]: the “Flk Kinase % Inhibition” value on FLK-1 receptor was −8.6%. The “PDGF Kinase % Inhibition” value in test [1] is −3.2%. Also, at EGFR, the “Biochem EGFR % Inhibition” value was 26.2%. The “Met Kinase % Inhibition” value with human MET is reported as 55.3%.
For the molecule `Cc1ccc(C=C2C(=O)Nc3ccc(I)cc32)o1` [10725/B04], the “Flk Kinase % Inhibition” value at FLK-1 receptor is on record as 1.1%. Besides, the “PDGF Kinase % Inhibition” value in test [1] is listed as 9.3%. Moreover, the “Biochem EGFR % Inhibition” value on EGFR stood at 76.9%. Besides, the “Met Kinase % Inhibition” value in the test with human MET turned out to be 90.4%.
With `CNS(=O)(=O)c1ccc2c(c1)C(=Cc1cccc(C#N)c1)C(=O)N2` [10727/D08], the “PDGF Kinase % Inhibition” value in test [1] came to 5.0%. Moreover, the “Met Kinase % Inhibition” value with human MET came to 8.5%.
Turning to `O=C1Nc2ccc(I)cc2C1=Cc1ccc2c(c1)Cc1ccccc1-2` [10728/B06], the “Flk Kinase % Inhibition” value at FLK-1 receptor was 4.7%. Moreover, the “PDGF Kinase % Inhibition” value in test [1] was determined as 7.6%. Further, the “Biochem EGFR % Inhibition” value at EGFR is given as 38.1%. Further, the “Met Kinase % Inhibition” value in the test with human MET was 56.0%.
On to `CNS(=O)(=O)c1ccc2c(c1)C(=Cc1c(OC)ccc3ccccc13)C(=O)N2` [10729/D02], for which the “Biochem EGFR % Inhibition” value at EGFR is reported as 5.7%.
For the molecule `COc1c(I)cc(C=C2C(=O)Nc3ccc(S(=O)(=O)N4CCOCC4)cc32)cc1C(C)(C)C` [10732/F11], the “Flk Kinase % Inhibition” value on FLK-1 receptor is 14.1%. The “Met Kinase % Inhibition” value in the test on human MET is 65.1%.
As to `O=C1Nc2ccccc2/C1=C\c1cc2c([nH]1)CCCC2` [compound 0128], the pIC50 on FLK-1 receptor (setting [3]) was 5.77.
As for `O=C1Nc2ccc(Br)cc2/C1=C\c1cc2c([nH]1)CCCC2` [compound 0129], the pIC50 on FLK-1 receptor (setting [3]) was 4.71.
